Legend:
[1] = target: T1, GABAB receptor (Cavia porcellus, UniProt A0A286X9P6); test: Action on GABAB receptor: electrically stimulated contraction of isolated guinea pig ileum; format: cell-based; settings: for contraction (%): ileum contraction by electric stimulation calculated as 100%
T1 construct: The ileum was isolated from a guinea pig; from tissue; host or cells: isolated guinea pig ileum
Description: A test for GABAB receptor was performed according to the method reported by Kerr et al. (Kerr, D. I. B. Ong, J., Johnston, G. A. R. Abbenante, J. and Prager, R. H. (1988) 2-hydroxy-saclofen: an improved antagonist at central and peripheral GABAB receptors. Neurosci. Lett. 92: 92-96). The ileum was isolated from a guinea pig. […]
In Table 1, the ileum contraction by electric stimulation was calculated as 100%.

[2] = target: T2, NK2 receptor (Oryctolagus cuniculus, UniProt P79218); test: Action on NK2 receptor: [βAla^8]NKA(4-10)-induced contraction of isolated rabbit pulmonary artery; format: cell-based
T2 construct: The pulmonary artery was isolated from a rabbit; from tissue; host or cells: isolated rabbit pulmonary artery
T2 sequence (P79218 1-384): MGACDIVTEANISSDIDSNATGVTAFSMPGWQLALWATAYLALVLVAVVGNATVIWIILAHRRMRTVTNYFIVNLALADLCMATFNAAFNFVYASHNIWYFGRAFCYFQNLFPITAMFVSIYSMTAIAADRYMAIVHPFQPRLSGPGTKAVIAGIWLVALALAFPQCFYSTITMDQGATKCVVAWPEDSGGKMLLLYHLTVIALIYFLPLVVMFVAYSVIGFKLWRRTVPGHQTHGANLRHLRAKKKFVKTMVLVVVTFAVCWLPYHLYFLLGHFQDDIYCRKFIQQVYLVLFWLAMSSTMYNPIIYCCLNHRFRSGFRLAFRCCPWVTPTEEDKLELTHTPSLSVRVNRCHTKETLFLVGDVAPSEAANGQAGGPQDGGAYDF
Description: A test for NK2 receptor was performed according to the method reported by Emonds et al. (Emonds-Alt X., Advenier, C., Croco, T. Manara, L., Neliat, G., Poncelet, M., Proietto, V., Santucci, V., Soubrie, P., Van Broeck, D., Vilain, P., Le Fur, G. and Breliere, J. C. (1993) SR 48968, a neurokinin A (NK2) receptor antagonist Regul. Peptides. 46: 31-36). The pulmonary artery was isolated from a rabbit. The isolated tissue was hung in a solution of buffer (NaCl 118.0, KCl 4.7, MgSO4 1-2, CaCl2 2.5, KH2PO41.2, NaHCO3 25, glucose 11.0 (pH 7 4) (unit:mM) 37° C.) aerated with oxygen (95% oxygen, 5% carbon dioxide), added with benexytramine (1 μM, a receptor antagonist), propranolol (1 μM, β receptor antagonist), pyrilamine (1 μM, histamine H1 receptor antagonist), atropine (1 μM, muscarinic receptor antagonist) and metiserglde (1 μM, 5-HT2 receptor antagonist). After 60 min or more, lysine (0.3, 3, 30 mM) was added to the buffer, and the contraction of the pulmonary artery due to [βAla^8]NKA(4-10) was measured.
In Table 2, the pulmonary artery contraction by [βAla^8]NKA(4-10) was calculated as 100%.

[3] = tested on: 5-HT4 receptor; settings: cited from earlier work
[4] = tested on: wrap stress rat model; settings: in vivo; cited from earlier work
[5] = tested on: stress-induced colon distension rat model (visceral pain); test: Visceral perceptual threshold in stress-induced colon distension visceral pain rat model; settings: for visceral perceptual threshold that decreased due to the stress: stressed SD rat, from 10 min after administration, Dunnett's test

T1 sequence (A0A286X9P6 30-844): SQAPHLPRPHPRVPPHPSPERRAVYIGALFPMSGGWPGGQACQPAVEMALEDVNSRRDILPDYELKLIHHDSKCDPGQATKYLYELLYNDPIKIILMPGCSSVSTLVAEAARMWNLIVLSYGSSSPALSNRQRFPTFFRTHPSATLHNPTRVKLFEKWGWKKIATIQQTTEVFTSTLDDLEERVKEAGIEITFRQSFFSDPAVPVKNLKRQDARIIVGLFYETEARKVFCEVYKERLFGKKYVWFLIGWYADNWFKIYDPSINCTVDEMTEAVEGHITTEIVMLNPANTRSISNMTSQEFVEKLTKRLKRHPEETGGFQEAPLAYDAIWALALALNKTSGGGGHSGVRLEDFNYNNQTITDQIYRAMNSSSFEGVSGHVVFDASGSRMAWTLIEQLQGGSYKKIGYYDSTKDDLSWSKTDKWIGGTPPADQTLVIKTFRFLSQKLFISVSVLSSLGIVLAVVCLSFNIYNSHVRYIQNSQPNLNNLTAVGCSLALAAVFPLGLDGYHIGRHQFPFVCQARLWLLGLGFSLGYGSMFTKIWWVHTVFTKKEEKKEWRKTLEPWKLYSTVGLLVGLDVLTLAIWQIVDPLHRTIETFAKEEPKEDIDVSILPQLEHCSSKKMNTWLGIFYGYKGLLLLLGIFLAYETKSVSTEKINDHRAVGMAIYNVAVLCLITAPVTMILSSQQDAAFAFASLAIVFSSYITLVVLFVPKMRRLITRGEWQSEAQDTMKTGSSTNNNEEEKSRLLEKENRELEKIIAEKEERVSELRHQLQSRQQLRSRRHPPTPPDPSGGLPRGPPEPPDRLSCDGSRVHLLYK
T1 sequence (H0V741 1-820 partner): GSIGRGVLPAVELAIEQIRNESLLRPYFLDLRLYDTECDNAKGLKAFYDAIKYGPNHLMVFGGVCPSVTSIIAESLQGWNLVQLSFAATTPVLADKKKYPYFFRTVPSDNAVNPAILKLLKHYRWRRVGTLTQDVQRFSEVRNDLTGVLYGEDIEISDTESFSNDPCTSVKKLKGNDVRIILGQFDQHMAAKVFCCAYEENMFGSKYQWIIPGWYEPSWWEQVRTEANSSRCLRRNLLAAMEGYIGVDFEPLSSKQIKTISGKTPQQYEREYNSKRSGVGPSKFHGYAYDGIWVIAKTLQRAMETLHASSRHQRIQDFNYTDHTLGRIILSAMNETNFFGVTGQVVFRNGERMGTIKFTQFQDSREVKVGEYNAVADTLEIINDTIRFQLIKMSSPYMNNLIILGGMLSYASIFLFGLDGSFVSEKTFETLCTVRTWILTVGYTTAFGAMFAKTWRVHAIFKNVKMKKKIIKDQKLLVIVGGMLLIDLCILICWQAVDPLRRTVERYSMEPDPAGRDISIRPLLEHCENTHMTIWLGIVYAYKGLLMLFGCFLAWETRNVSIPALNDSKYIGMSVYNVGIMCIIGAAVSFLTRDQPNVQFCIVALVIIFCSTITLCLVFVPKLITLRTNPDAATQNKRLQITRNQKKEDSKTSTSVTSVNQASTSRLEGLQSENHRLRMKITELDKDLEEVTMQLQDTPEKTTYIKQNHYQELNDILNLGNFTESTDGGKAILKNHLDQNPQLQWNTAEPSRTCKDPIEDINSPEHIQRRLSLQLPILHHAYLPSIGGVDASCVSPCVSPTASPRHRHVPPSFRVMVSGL

Compound | contraction (%) ([1]; 0.3 mM) | contraction (%) ([1]; 3.0 mM) | contraction (%) ([1]; 30 mM) | ileum contraction via GABAB receptor ([1]; 0.3-30, isolated guinea pig ileum) | contraction (%) ([2]; 0.3 mM, contraction by [βAla^8]NKA(4-10) calculated as 100%) | contraction (%) ([2]; 3.0 mM, contraction by [βAla^8]NKA(4-10) calculated as 100%) | contraction (%) ([2]; 30 mM, contraction by [βAla^8]NKA(4-10) calculated as 100%) | pulmonary artery contraction via NK2 receptor ([2]; 0.3-30 mM, isolated rabbit pulmonary artery) | action at 5-HT4 receptor [3] | effect on wrap stress rat model [4] | time for which significant increase of visceral perceptual threshold was observed ([5]; 1 g/kg or 3 g/kg orally) | visceral perceptual threshold that decreased due to the stress ([5]; 1 g/kg orally) | visceral perceptual threshold that decreased due to the stress ([5]; 3 g/kg orally) | contraction (%) ([2]; 3 × 10^−4 mM, agonist alone, reference set as 100%)
NCCCC[C@H](N)C(=O)O [lysine] | 0 | −20 | −77 | suppressed the ileum contraction via GABAB receptor, in a dose-dependent manner | 85 | 41 | 19 | suppressed the pulmonary artery contraction via NK2 receptor, in a dose-dependent manner | 5-HT4 receptor antagonist | treatment effect | about 2 hr | significantly increased | significantly increased | 
[βAla^8]NKA(4-10) [reference compound] |  |  |  |  |  |  |  |  |  |  |  |  |  | 100
